Source: the NIST ThermoML archive (doi:10.1016/j.fluid.2014.02.006)
± gives the expanded uncertainty stated by the source.

Key:
[1] = 298.15 K; 101.33 kPa; Liquid; Vibrating tube method
[2] = refractive index (Na D-line) (dimensionless); settings: 298.15 K; 101.33 kPa; Liquid; Standard Abbe refractometry

mass density [1] [kg/m3]	refractive index [2]	Compound
1049.68 ± 0.14	1.43851 ± 0.00032	OCCCO [propan-1,3-diol]
781.18 ± 0.15	1.3752 ± 0.00032	CC(C)O [propan-2-ol]

Compound	mass density [1] [kg/m3]	refractive index [2]
O [water]	–	1.33237 ± 0.00032
